Laboratory results: patent US20120283228A1, “2alpha-Methyl and 2beta-Methyl Analogs of 19,26-Dinor-1alpha,25-Dihydroxyvitamin D3 and Their Uses” (WISCONSIN ALUMNI RESEARCH FOUNDATION, priority 2011, published 2012)
“Also recorded” adds a separate entry of the source.

Key:
[1] = system: 24-hydroxylase (24Ohase) gene promoter; assay: In vitro transcription assay in ROS 17/2.8 (bone) cells, luciferase reporter; assay type: cell-based
Description: Transcription activity was measured in ROS 17/2.8 (bone) cells that were stably transfected with a 24-hydroxylase (24Ohase) gene promoter upstream of a luciferase reporter gene (Arbour et al., 1998). Cells were given a range of doses. Sixteen hours after dosing the cells were harvested and luciferase activities were measured using a luminometer.
RLU=relative luciferase units.

vitamin D-deficient rats [2] = assay: Intestinal calcium transport (everted gut sac method); assay type: in vivo, Sprague-Dawley rats
Description: (§1) Male, weanling Sprague-Dawley rats were placed on Diet 11 (0.47% Ca) diet +AEK for one week followed by Diet 11 (0.02% Ca) +AEK for 3 weeks. The rats were then switched to a diet containing 0.47% Ca for one week followed by two, weeks on a diet containing 0.02% Ca. Dose administration began during the last week on 0.02% calcium diet. Four consecutive ip doses were given approximately 24 hours apart. Twenty-four hours after the last dose, blood was collected from the severed neck and the concentration of serum calcium determined as a measure of bone calcium mobilization. The first 10 cm of the intestine was also collected for intestinal calcium transport analysis using the everted gut sac method.

vitamin D-deficient rats [3] = assay: Bone calcium mobilization (serum calcium); assay type: in vivo, Sprague-Dawley rats; details: rats on low calcium diet (0.02%); for mobilization of bone calcium at 7,020 pmol/day: 7,020 pmol/day for 4 consecutive days; for activity in mobilizing calcium from bone / serum calcium levels: all dosages tested; for times less potent than 1,25(OH)2D3 in bone (bone calcium mobilization): 4 ip doses
Description: as §1

[4] = biological target: T1, full-length recombinant rat vitamin D receptor (Rattus norvegicus, UniProt P13053); assay: biochemical; details: ability to compete with [3H]-1,25(OH)2D3 for binding to the vitamin D receptor, full-length recombinant rat VDR
T1 sequence (P13053 1-423): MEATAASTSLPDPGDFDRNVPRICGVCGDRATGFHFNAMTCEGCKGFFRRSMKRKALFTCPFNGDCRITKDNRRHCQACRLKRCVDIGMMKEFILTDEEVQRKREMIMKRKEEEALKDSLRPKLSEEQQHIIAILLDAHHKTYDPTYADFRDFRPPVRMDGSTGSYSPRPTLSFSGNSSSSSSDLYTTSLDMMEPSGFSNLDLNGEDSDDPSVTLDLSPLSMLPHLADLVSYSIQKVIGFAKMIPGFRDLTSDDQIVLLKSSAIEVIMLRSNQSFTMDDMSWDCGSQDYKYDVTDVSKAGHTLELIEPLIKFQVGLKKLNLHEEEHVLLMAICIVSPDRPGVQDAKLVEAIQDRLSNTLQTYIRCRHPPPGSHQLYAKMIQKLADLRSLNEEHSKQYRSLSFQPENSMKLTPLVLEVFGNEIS
Description: (§2) Full-length recombinant rat receptor was expressed in E. coli BL21 (DE3) Codon Plus RIL cells and purified to homogeneity using two different column chromatography systems. The first system was a nickel affinity resin that utilizes the C-terminal histidine tag on this protein. The protein that was eluted from this resin was further purified using ion exchange chromatography (S-Sepharose Fast Flow). Aliquots of the purified protein were quick frozen in liquid nitrogen and stored at −80° C. until use. For use in binding assays, the protein was diluted in TEDK50 (50 mM Tris, 1.5 mM EDTA, pH 7.4, 5 mM DTT, 150 mM KCl) with 0.1% Chaps detergent. The receptor protein and ligand concentration was optimized such that no more than 20% of the added radiolabeled ligand as bound to the receptor.
(§3) Radiolabeled and unlabeled ligands were added to 100 mcl of the diluted protein at a final ethanol concentration of ≦10%; mixed and incubated overnight on ice to reach binding equilibrium. The following day, 100 mcl of hydroxylapaptite slurry (50%) was added to each tube and mixed at 10-minute intervals for 30 minutes. The hydroxylapaptite was collected by centrifugation and then washed three times with Tris-EDTA buffer (50 mM Tris, 1.5 mM EDTA, pH 7.4) containing 0.5% Titron X-100. After the final wash, the pellets were transferred to scintillation vials containing 4 ml of Biosafe II scintillation cocktail, mixed and placed in a scintillation counter. Total binding was determined from the tubes containing only radiolabeled ligand.

[5] = system: Human promyelocytic leukemia (HL60) cells; assay: HL-60 differentiation (nitro blue tetrazolium reduction); assay type: cell-based; details: for EC50: HL-60 cells, read-out: EC50, ability to promote HL-60 cell differentiation
Description: Serial dilutions were prepared so that a range of drug concentrations could be tested without changing the final concentration of ethanol (≦0.2%) present in the cell cultures.
Human promyelocytic leukemia (HL60) cells were grown in RPMI-1640 medium containing 10% fetal bovine serus. The cells were incubated at 37° C. in the presence of 5% CO2.
HL60 cells were plated at 1.2×10^5 cells/ml. Eighteen hours after plating, cells in duplicate were treated with drug. Four days later, the cells were harvested and a nitro blue tetrazolium reduction assay was performed (Collins et al., 1979; J. Ex. Med. 149:969-974). The percentage of differentiated cells was determined by counting a total of 200 cells and recording the number that contained intracellular black-blue formazan deposits Verification of differentiation to monocytic cells was determined by measuring phagocytic activity (data not shown).

[6] = biological target: T1, full-length recombinant rat vitamin D receptor
Description: as §2, §3

[7] = compared with 1,25(OH)2D3 at 780 pmol/day
[8] = rats on low calcium diet (0.02%), 4 ip doses

SMILES	times more transcriptional activity than 1α,25-dihydroxyvitamin D3 in bone cells ([1]; more than 1,25(OH)2D3)	intestinal calcium transport at 7,020 pmol/day (vitamin D-deficient rats [2]; [7])	logs less potent than 1,25(OH)2D3 in the intestine (vitamin D-deficient rats [2]; [8])	times less potent than 1,25(OH)2D3 in stimulating calcium transport in the gut (vitamin D-deficient rats [2]; [8])	mobilization of bone calcium at 7,020 pmol/day (vitamin D-deficient rats [3])	mobilization of bone calcium at 21,060 pmol/day (vitamin D-deficient rats [3]; 21,060 pmol/day for 4 consecutive days)	activity in mobilizing calcium from bone / serum calcium levels (vitamin D-deficient rats [3])	times less potent than 1,25(OH)2D3 in bone (bone calcium mobilization) (vitamin D-deficient rats [3])	Ki [4]	EC50 [5]	times more potent than 1,25(OH)2D3 on HL-60 differentiation [5]	binding to the receptor as compared to 1,25(OH)2D3 [6]	transcriptional activity in bone cells as compared to 1α,25-dihydroxyvitamin D3 [1]	EC50 ([1]; ROS 17/2.8 cells, 24-hydroxylase promoter-luciferase, read-out: EC50, transcriptional activity in bone cells)	logs less transcriptional activity than 1α,25-dihydroxyvitamin D3 in bone cells ([1]; less than 1,25(OH)2D3)	intestinal calcium transport at 35,100 pmol/day (vitamin D-deficient rats [2]; 35,100 pmol/day, compared with 1,25(OH)2D3 at 780 pmol/day)	mobilization of bone calcium at 35,100 pmol/day (vitamin D-deficient rats [3]; 35,100 pmol/day for 4 consecutive days)	HL-60 differentiation potency as compared to 1,25(OH)2D3 [5]
CC(O)CCCC(C)C1CCC2C(=CC=C3CC(O)C(C)C(O)C3)CCCC21C (single isomer, unassigned) [LR-2]	10 times	some intestinal calcium transport activity, but still not to the same extent as 1,25(OH)2D3	approximately one and one	about 10 times	did not result in mobilization of bone calcium	without any substantial effect	little, if any, activity	more than 30 times	0.08 nM	0.1 nM	10 times	bound equally well; also recorded: equivalent	–	–	–	–	–	–
CC(O)CCCC(C)C1CCC2C(=CC=C3CC(O)C(C)C(O)C3)CCCC21C (single isomer, unassigned) [NC-2]	–	some intestinal calcium transport activity, but still not to the same extent as 1,25(OH)2D3	approximately 5 log	–	did not result, in mobilization of bone calcium	–	little, if any, activity	more than 50 times	0.2 nM	5 nM	4 times	bound equally well; also recorded: equivalent	slightly less transcriptional activity	0.6 nM	about one-half	some intestinal calcium transport activity, but still not to the same extent as 1,25(OH)2D3	without any substantial effect	little difference
